The text below walks through data of the COVID Moonshot data (paper PMC11187573), “Identification of SARS-CoV-2 Mpro inhibitors through deep reinforcement learning for de novo drug design and computational chemistry approaches” (RSC Medicinal Chemistry, 2024).

The target of data set [1] is SARS-CoV-2 Main Protease (SARS-CoV-2) (UniProt P0DTD1).
Data set [2] shares this target. The source holds these as a separate data set.

In general, inhibition refers to the drop in the measured response relative to a control, in per cent. Take `O=C(Nc1cnccc1Cl)c1cccc(Cl)c1`: the relative solubility at 20 uM is 1 and the relative solubility at 100 uM was 1. Also, the inhibition in data set [1] (20.0 µM) was -2.3%. For the same molecule, in data set [1] (50.0 µM), the inhibition is 3.23%. In addition, the inhibition in data set [2] (20.0 µM) amounted to 0%. Moreover, in data set [2] (50.0 µM), the inhibition was 10.5%.
In turn, `Cc1noc(C)c1CS(=O)(=O)Cc1cccc(Cl)c1` came in with a relative solubility at 20 uM of 0.99 and a relative solubility at 100 uM of 1. In addition, in data set [1] (20.0 µM), the inhibition was found to be 1.07%. Further, in data set [1] (50.0 µM), the inhibition is -0.0149%. The inhibition in data set [2] (50.0 µM) is 0%.
`O=C(Cc1c[nH]c2ncccc12)NCc1cc(Cl)ccn1` returned a relative solubility at 20 uM of 1 and a relative solubility at 100 uM of 0.98. Further, the inhibition in data set [1] (20.0 µM) amounted to 2.58%. Moreover, the inhibition in data set [1] (50.0 µM) stood at 8.45%. Further, in data set [2] (20.0 µM), the inhibition is 0%.
For `O=C(Nc1ccnnc1)NC(Cc1ccccc1)C(=O)N1CCCC1` (centres undefined), the relative solubility at 20 uM amounted to 1 and the relative solubility at 100 uM came to 1. Further, the inhibition in data set [1] (20.0 µM) turned out to be 0.0835%. Further, in data set [1] (50.0 µM), the inhibition turned out to be 3.23%. Also, the inhibition in data set [2] (20.0 µM) stood at 0%. The inhibition in data set [2] (50.0 µM) was 0%.
As for `Cc1ccc(NC(=O)C(C#N)C(=O)CC(C)C)cc1` (centres undefined), the relative solubility at 20 uM was found to be 0.99 and the relative solubility at 100 uM amounted to 1. Also, the inhibition in data set [1] (50.0 µM) came to 21.5%. In addition, in data set [2] (20.0 µM), the inhibition amounted to 3.11%. In addition, the inhibition in data set [2] (50.0 µM) amounted to 0%.
For the molecule `CO[C@H](C)C(=O)N(C)c1cnccc1C` (stereo in doubt), the relative solubility at 20 uM came out at 1.01 and the relative solubility at 100 uM is 0.99. Besides, the inhibition in data set [1] (20.0 µM) was found to be 3.08%. Besides, in data set [1] (50.0 µM), the inhibition is 4.99%. Also, the inhibition in data set [2] (50.0 µM) came out at 18%.
For `C=CC(=O)Nc1cccc(OC2CC(=O)N2)c1` (centres undefined), in that order: 1, 1, 5.39%, 2.19% and 2.88%.
Molecule `C=CC(=O)N(c1ccc(C(C)(C)CC)cc1)C(C(=O)Nc1ccc(Br)cc1)c1cccnc1` (centres undefined) displayed a relative solubility at 20 uM of 0.91 and a relative solubility at 100 uM of 0.66. The inhibition in data set [1] (20.0 µM) is 8.32%. Further, the inhibition in data set [1] (50.0 µM) was 18.4%. Further, the inhibition in data set [2] (20.0 µM) is 0%.
As for `O=C(Nc1cccc(C(=O)N2CCSCC2)c1)C(F)Cl` (centres undefined), the relative solubility at 20 uM amounted to 1 and the relative solubility at 100 uM is 1. In addition, in data set [1] (20.0 µM), the inhibition is -13.8%. In addition, in data set [1] (50.0 µM), the inhibition was -16.9%. The inhibition in data set [2] (20.0 µM) worked out at 0%. The inhibition in data set [2] (50.0 µM) turned out to be 0%.
The IC50 is the concentration at which inhibition is half-maximal. A higher IC50 goes with lower potency. As for `O=C(CCl)N1CC2CC1CN2Cc1cccc(Cl)c1` (centres undefined), the relative solubility at 20 uM is 0.99 and the relative solubility at 100 uM came to 1. Also, in data set [1] (20.0 µM), the inhibition stood at 82.2%. In addition, the inhibition in data set [1] (50.0 µM) is 72.7%. Further, the concentration for half-maximal inhibition (IC50) in data set [2] was found to be 0.655 µM. The inhibition in data set [2] (20.0 µM) was 100%. Moreover, the inhibition in data set [2] (50.0 µM) was 100%.
On to `C=CC(=O)N(c1ccc2ncsc2c1)C(C(=O)Nc1ccc(Br)cc1)c1cccnc1` (centres undefined), for which the relative solubility at 20 uM amounted to 0.75 and the relative solubility at 100 uM was 0.64. In addition, the inhibition in data set [1] (20.0 µM) stood at 17.4%. The inhibition in data set [1] (50.0 µM) is 34.9%. Also, in data set [2] (20.0 µM), the inhibition stood at 3.05%.
Turning to `N#Cc1cccc(NC(=O)Nc2cccnc2)c1`, the relative solubility at 20 uM amounted to 1 and the relative solubility at 100 uM was found to be 1. Besides, the inhibition in data set [1] (20.0 µM) is 6.21%. Besides, in data set [1] (50.0 µM), the inhibition was found to be 10.3%. The inhibition in data set [2] (20.0 µM) worked out at 0%.
`COc1ccc(C(=O)Nc2cccc(/C=C3/C(=O)NC(=O)c4ccccc43)c2)cc1` had a relative solubility at 20 uM of 0.48 and a relative solubility at 100 uM of 0.54. The inhibition in data set [1] (20.0 µM) was -3.55%. Moreover, in data set [1] (50.0 µM), the inhibition was -22.9%. The inhibition in data set [2] (50.0 µM) is 34.2%.
Molecule `O=C(CCl)N1CCN(C(c2ccccc2)c2ccccc2)CC1` yielded a relative solubility at 20 uM of -0.2 and a relative solubility at 100 uM of 0.01. Besides, in data set [1] (50.0 µM), the inhibition came to 108%. The IC50 in data set [2] is 0.386 µM. For the same molecule, the inhibition in data set [2] (20.0 µM) turned out to be 100%. Also, in data set [2] (50.0 µM), the inhibition worked out at 100%.
`CCOCC1CCN(c2ccc(S(N)(=O)=O)cc2)CC1`: the relative solubility at 20 uM was found to be 1 and the relative solubility at 100 uM came out at 1. Besides, in data set [1] (50.0 µM), the inhibition turned out to be 7.41%. For the same molecule, in data set [2] (20.0 µM), the inhibition was 21.8%. Besides, the inhibition in data set [2] (50.0 µM) turned out to be 44.6%.
`COC(=O)C(c1ccccc1Cl)N1CCC2SC(=O)C=C2C1` (centres undefined) returned a relative solubility at 20 uM of 0.82 and a relative solubility at 100 uM of 0.81. The inhibition in data set [1] (20.0 µM) was -46.2%. For the same molecule, in data set [1] (50.0 µM), the inhibition is -5.13%. In data set [2] (50.0 µM), the inhibition turned out to be 11.5%.
For `NS(=O)(=O)c1ccc2c(c1)C(=O)C(=O)N2`, the relative solubility at 20 uM was 1.01 and the relative solubility at 100 uM is 1. The inhibition in data set [1] (20.0 µM) was -2.6%. Further, the inhibition in data set [1] (50.0 µM) is -3.21%. Besides, in data set [2] (50.0 µM), the inhibition is 37.1%.
`CC(CCc1ccccc1)N1CCN(C(=O)CCl)CC1` (centres undefined) yielded a relative solubility at 20 uM of 1 and a relative solubility at 100 uM of 1. The inhibition in data set [1] (20.0 µM) stood at 45%. Further, in data set [1] (50.0 µM), the inhibition turned out to be 60.7%. The IC50 in data set [2] stood at 13.6 µM. Further, the inhibition in data set [2] (20.0 µM) amounted to 62.6%. Moreover, the inhibition in data set [2] (50.0 µM) was 91.1%.
`Cc1ccncc1NC(=O)C(C)(C)c1cccc(Cl)c1`: the relative solubility at 20 uM worked out at 1 and the relative solubility at 100 uM was 1. For the same molecule, in data set [1] (20.0 µM), the inhibition was 49.3%. Further, the inhibition in data set [1] (50.0 µM) stood at 68%. In addition, in data set [2], the IC50 worked out at 24.5 µM. The inhibition in data set [2] (50.0 µM) was 66.9%.
